According to ChEMBL document CHEMBL3880388, “Dihydropyrimidin-2(1H)-ones and dihydropyrimidin-2(1H)-thiones as inhibitors of sodium iodide symporter” (2014):

What was measured:
[1] = Cytotoxicity against rat FRTL5 cells assessed as effect on cell growth at 1 uM measured at 24 hrs by MTT assay; type: cell-based; settings: frtl-5, 24 h
[2] = target: T1, Sodium/iodide cotransporter (Rattus norvegicus, UniProt Q63008); assay: Inhibition of sodium iodide symporter in rat FRTL5 cells assessed as inhibition of iodide uptake using NaI/Na125I after 45 mins by scintillation counting method; type: cell-based, FRTL-5
T1 sequence (Q63008 whole entry): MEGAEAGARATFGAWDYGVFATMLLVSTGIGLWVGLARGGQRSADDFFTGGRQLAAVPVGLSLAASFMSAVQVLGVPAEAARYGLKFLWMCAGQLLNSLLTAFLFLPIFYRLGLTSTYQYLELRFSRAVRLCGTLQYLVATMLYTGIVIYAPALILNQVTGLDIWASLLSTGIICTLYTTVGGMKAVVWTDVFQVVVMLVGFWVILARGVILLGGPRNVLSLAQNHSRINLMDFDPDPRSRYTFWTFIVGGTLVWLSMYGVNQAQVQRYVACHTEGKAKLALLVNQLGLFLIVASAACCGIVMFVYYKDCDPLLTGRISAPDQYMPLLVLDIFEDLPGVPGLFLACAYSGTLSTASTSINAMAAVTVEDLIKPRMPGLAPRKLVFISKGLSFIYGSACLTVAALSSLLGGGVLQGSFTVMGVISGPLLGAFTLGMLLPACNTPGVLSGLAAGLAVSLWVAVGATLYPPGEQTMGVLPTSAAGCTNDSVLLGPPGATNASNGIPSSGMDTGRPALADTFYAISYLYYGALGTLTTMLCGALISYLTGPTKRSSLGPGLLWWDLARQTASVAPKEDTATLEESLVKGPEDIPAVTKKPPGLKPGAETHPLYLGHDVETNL

[3] = target: T1, Sodium/iodide cotransporter; assay: Inhibition of sodium iodide symporter in rat FRTL5 cells assessed as inhibition of iodide uptake using Na125I after 60 mins by scintillation counting method; type: cell-based, FRTL-5

Compound	Activity [1]	other results
COc1ccc(COC(=O)C2=C(c3ccccc3)NC(=O)NC2c2ccccc2)cc1 (centres undefined)	Non-Toxic	
CC1=C(C(=O)OCc2ccc3c(c2)OCO3)C(c2ccco2)N(C)C(=O)N1C (centres undefined)	Non-Toxic	
CC1=C(C(=O)OCc2ccccc2)C(c2ccccc2)NC(=O)N1 (centres undefined)	Non-Toxic	
CC1=C(C(=O)OCc2ccc3c(c2)OCO3)C(c2ccccc2)NC(=O)N1 (centres undefined)	Non-Toxic	
F[B-](F)(F)c1ccc(OCc2ccccc2)cc1		IC50 [2]: 400 nM
COc1ccc(COC(=O)C2=C(C)N(C)C(=O)NC2c2ccccc2)cc1 (centres undefined)	Non-Toxic	
COc1cccc(COC(=O)C2=C(C)N(C)C(=O)N(C)C2c2ccco2)c1 (centres undefined)	Non-Toxic	
COc1ccc(COC(=O)C2=C(Cc3cccs3)NC(=O)NC2c2ccccc2)cc1 (centres undefined)	Non-Toxic	
CC1=C(C(=O)OCc2ccc(Cl)cc2)C(c2ccccc2)NC(=O)N1 (centres undefined)	Non-Toxic	
COc1ccc(COC(=O)C2=C(C)NC(=O)NC2c2cccc(Cl)c2)cc1 (centres undefined)	Non-Toxic	
CC1=C(C(=O)OCc2ccccc2Cl)C(c2ccccc2)NC(=O)N1 (centres undefined)	Non-Toxic	
CC1=C(C(=O)OCc2ccc3c(c2)OCO3)C(c2ccoc2)NC(=O)N1 (centres undefined)	Non-Toxic	
CC1=C(C(=O)OCc2ccc3c(c2)OCO3)C(c2ccco2)NC(=O)N1C (centres undefined)	Non-Toxic	
COc1ccc(COC(=O)C2=C(C)NC(=O)NC2c2ccco2)cc1 (centres undefined)	Non-Toxic	
COc1ccc(COC(=O)C2=C(C)NC(=O)NC2c2ccccc2F)cc1 (centres undefined)	Non-Toxic	
COc1ccc(COC(=O)C2=C(C)N(C)C(=O)N(C)C2c2ccccc2)cc1 (centres undefined)	Non-Toxic	
COc1ccc(COC(=O)C2=C(CNC(=O)c3ccccc3)NC(=O)NC2c2ccccc2)cc1 (centres undefined)	Non-Toxic	
COc1ccc(COC(=O)C2=C(c3cccs3)NC(=O)NC2c2ccccc2)cc1 (centres undefined)	Non-Toxic	
COc1ccc(COC(=O)C2=C(C)NC(=O)NC2c2ccccc2)cc1 (centres undefined)		IC50 [3]: 400 nM
COc1ccc(COC(=O)C2=C(COc3ccccc3)NC(=O)NC2c2ccccc2)cc1 (centres undefined)	Non-Toxic	
COc1ccc(COC(=O)C2=C(C)NC(=O)NC2c2cccs2)cc1 (centres undefined)	Non-Toxic	
CCC1=C(C(=O)OCc2ccc(OC)cc2)C(c2ccccc2)NC(=O)N1 (centres undefined)	Non-Toxic	

Compound	Activity [1]	other results
COc1ccc(COC(=O)C2=C(C)NC(=O)NC2c2cccc(Br)c2)cc1 (centres undefined)	Non-Toxic	
COc1cccc(COC(=O)C2=C(C)N(C)C(=O)NC2c2ccco2)c1 (centres undefined)	Non-Toxic	
COc1cccc(COC(=O)C2=C(C)NC(=O)NC2c2ccccc2)c1 (centres undefined)	Non-Toxic	
COc1cccc(COC(=O)C2=C(C)NC(=O)NC2c2ccco2)c1 (centres undefined)	Non-Toxic	
COc1ccc(COC(=O)C2=C(Cc3ccccc3)NC(=O)NC2c2ccccc2)cc1 (centres undefined)	Non-Toxic	
COc1ccc(COC(=O)C2=C(C)NC(=O)NC2c2ccoc2)cc1 (centres undefined)	Non-Toxic	
COc1ccc(COC(=O)C2=C(C)N(C)C(=O)NC2c2ccco2)cc1 (centres undefined)	Non-Toxic	
COc1ccc(COC(=O)C2=C(C)NC(=S)NC2c2ccccc2)cc1 (centres undefined)	Non-Toxic	
CCCCCC1=C(C(=O)OCc2ccc(OC)cc2)C(c2ccccc2)NC(=O)N1 (centres undefined)	Non-Toxic	
COc1ccc(COC(=O)C2=C(C)N(C)C(=O)N(C)C2c2ccco2)cc1 (centres undefined)	Non-Toxic	
COc1ccc(COC(=O)C2=C(C)NC(=O)NC2c2cccc(F)c2)cc1 (centres undefined)	Non-Toxic	
COc1ccc(COC(=O)C2=C(CC(C)C)NC(=O)NC2c2ccccc2)cc1 (centres undefined)	Non-Toxic	
COc1ccc(COC(=O)C2=C(C)NC(=O)NC2c2ccc(C)o2)cc1 (centres undefined)	Non-Toxic	
COc1ccc(COC(=O)C2=C(C)NC(=O)NC2c2ccsc2)cc1 (centres undefined)	Non-Toxic	
COc1ccc(COC(=O)C2=C(C)NC(=O)NC2c2ccc(F)cc2)cc1 (centres undefined)	Non-Toxic	
CC1=C(C(=O)OCc2ccccc2C)C(c2ccccc2)NC(=O)N1 (centres undefined)	Non-Toxic	
COc1ccc(COC(=O)C2=C(C3CCCCC3)NC(=O)NC2c2ccccc2)cc1 (centres undefined)	Non-Toxic	
COc1ccc(COC(=O)C2=C(C)NC(=O)NC2C2CC2)cc1 (centres undefined)	Non-Toxic	
CC1=C(C(=O)OCc2ccc3c(c2)OCO3)C(c2ccco2)NC(=O)N1 (centres undefined)	Non-Toxic	
COc1ccc(COC(=O)C2=C(C)N(C)C(=O)N(C)C2c2ccco2)cc1OC (centres undefined)	Non-Toxic	
CC1=C(C(=O)OCc2ccc(F)cc2)C(c2ccccc2)NC(=O)N1 (centres undefined)	Non-Toxic	
CC1=C(C(=O)NCc2ccc3c(c2)OCO3)C(c2ccccc2)NC(=O)N1 (centres undefined)	Non-Toxic	
